PMC6130310 (Frontiers in Molecular Neuroscience, 2018)

Tests used:
Experiment in all cases: two-electrode voltage clamp, Xenopus oocytes
[1] = target: T1, zGlyRα2/ßa (Danio rerio, UniProt A0ACM8PZL4+F1R8P4); assay type: cell-based
T1 construct: gene glra2; full-length cDNAs in pCS2+, cRNAs co-injected 1:1 in Xenopus laevis oocytes; heteropentamer
Source text: two-electrode voltage clamp, Xenopus oocytes on zGlyRα2/ßa

[2] = target: T2, zGlyRα2 homomer (Danio rerio, UniProt F1R8P4); assay type: cell-based
T2 construct: gene glra2; full-length cDNA in pCS2+, Kozak added; cRNA in Xenopus laevis oocytes; homopentamer; not the earlier 'zGlyRα2' (now α4a)
T2 sequence (F1R8P4 28-449): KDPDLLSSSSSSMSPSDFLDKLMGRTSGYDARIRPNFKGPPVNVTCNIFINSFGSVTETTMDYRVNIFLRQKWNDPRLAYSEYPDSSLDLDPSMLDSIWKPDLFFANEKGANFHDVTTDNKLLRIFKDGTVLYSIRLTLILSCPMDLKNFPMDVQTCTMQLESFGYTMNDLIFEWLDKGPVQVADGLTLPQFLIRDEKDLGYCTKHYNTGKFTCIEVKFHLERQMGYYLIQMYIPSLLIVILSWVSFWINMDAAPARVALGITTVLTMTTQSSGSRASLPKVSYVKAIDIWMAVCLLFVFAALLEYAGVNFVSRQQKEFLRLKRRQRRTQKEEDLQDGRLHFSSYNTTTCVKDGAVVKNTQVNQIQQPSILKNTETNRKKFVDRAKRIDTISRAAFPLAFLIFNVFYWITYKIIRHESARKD
Source text: two-electrode voltage clamp, Xenopus oocytes on zGlyRα2 homomer

[3] = target: T3, zGlyRα1 homomer (Danio rerio, UniProt O93430); assay type: cell-based
T3 construct: gene glra1; full-length cDNA in pCS2+, Kozak added; cRNA in Xenopus laevis oocytes; homopentamer
T3 sequence (O93430 25-444): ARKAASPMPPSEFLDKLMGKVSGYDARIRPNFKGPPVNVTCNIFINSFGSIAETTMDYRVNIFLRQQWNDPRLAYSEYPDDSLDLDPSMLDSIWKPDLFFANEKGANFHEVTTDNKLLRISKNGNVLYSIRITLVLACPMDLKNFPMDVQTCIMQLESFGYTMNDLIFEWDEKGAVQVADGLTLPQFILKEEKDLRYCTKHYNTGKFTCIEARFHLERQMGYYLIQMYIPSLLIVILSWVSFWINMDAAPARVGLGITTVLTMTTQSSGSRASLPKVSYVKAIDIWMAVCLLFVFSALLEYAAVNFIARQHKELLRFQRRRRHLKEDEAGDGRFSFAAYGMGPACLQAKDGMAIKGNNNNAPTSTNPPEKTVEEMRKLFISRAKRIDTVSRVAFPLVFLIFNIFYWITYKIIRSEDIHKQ
Source text: two-electrode voltage clamp, Xenopus oocytes on zGlyRα1 homomer

[4] = system: T4, zGlyRα1/ßa; assay type: cell-based, Danio rerio; conditions: -50 mV, pH 7.5, heteromers alpha:beta cRNA 1:1
T4 construct: gene glra1; full-length cDNAs in pCS2+, cRNAs co-injected 1:1 in Xenopus laevis oocytes; heteropentamer
Source text: two-electrode voltage clamp, Xenopus oocytes on zGlyRα1/ßa

[5] = target: T5, zGlyRα4a/ßa (Danio rerio, UniProt A0ACM8PZL4+F1RDZ6); assay type: cell-based
T5 construct: gene glra4a; full-length cDNAs in pCS2+, cRNAs co-injected 1:1 in Xenopus laevis oocytes; heteropentamer
Source text: two-electrode voltage clamp, Xenopus oocytes on zGlyRα4a/ßa

[6] = target: T6, zGlyRα2/ßb (Danio rerio, UniProt F1R8P4+Q6DC22); assay type: cell-based
T6 construct: gene glra2; full-length cDNAs in pCS2+, cRNAs co-injected 1:1 in Xenopus laevis oocytes; heteropentamer
T6 sequence (F1R8P4 28-449): T2 sequence (F1R8P4 28-449)
T6 sequence (Q6DC22 23-494): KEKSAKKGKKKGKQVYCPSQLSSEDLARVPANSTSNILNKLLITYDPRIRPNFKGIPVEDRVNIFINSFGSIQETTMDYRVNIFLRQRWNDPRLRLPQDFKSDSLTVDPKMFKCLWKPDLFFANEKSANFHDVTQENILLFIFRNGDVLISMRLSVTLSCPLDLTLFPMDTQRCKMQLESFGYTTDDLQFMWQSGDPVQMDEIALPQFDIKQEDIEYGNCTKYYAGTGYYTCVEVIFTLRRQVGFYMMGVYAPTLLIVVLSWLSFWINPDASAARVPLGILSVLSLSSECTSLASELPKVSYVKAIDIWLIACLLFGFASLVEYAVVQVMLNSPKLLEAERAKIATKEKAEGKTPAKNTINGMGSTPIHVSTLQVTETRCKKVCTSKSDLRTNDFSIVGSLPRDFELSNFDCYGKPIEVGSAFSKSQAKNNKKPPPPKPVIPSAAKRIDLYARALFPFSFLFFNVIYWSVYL
Source text: two-electrode voltage clamp, Xenopus oocytes on zGlyRα2/ßb

[7] = target: T7, zGlyRα4a homomer (Danio rerio, UniProt F1RDZ6); assay type: cell-based
T7 construct: gene glra4a; full-length cDNA in pCS2+, Kozak added; cRNA in Xenopus laevis oocytes; homopentamer
T7 sequence (F1RDZ6 28-457): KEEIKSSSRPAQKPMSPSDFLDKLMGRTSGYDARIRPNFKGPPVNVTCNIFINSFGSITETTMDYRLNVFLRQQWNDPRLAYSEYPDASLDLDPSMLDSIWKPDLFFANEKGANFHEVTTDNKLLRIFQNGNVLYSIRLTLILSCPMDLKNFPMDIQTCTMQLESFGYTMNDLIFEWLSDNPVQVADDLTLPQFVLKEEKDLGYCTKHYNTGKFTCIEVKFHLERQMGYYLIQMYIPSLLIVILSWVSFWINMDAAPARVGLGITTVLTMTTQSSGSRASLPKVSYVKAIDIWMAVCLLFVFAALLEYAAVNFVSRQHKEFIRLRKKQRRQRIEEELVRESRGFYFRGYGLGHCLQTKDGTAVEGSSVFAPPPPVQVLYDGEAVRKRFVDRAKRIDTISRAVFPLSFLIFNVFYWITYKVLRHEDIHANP
Source text: two-electrode voltage clamp, Xenopus oocytes on zGlyRα4a homomer

[8] = target: T8, zGlyRα4a/ßb (Danio rerio, UniProt F1RDZ6+Q6DC22); assay type: cell-based
T8 construct: gene glra4a; full-length cDNAs in pCS2+, cRNAs co-injected 1:1 in Xenopus laevis oocytes; heteropentamer
T8 sequence (F1RDZ6 28-457): T7 sequence (F1RDZ6 28-457)
T8 sequence (Q6DC22 23-494): T6 sequence (Q6DC22 23-494)
Source text: two-electrode voltage clamp, Xenopus oocytes on zGlyRα4a/ßb

[9] = target: T9, zGlyRα4b homomer (Danio rerio, UniProt A0A8M1P2L1); assay type: cell-based
T9 construct: gene glra4b; full-length cDNA in pCS2+, Kozak added; cRNA in Xenopus laevis oocytes; homopentamer
T9 sequence (A0A8M1P2L1 25-492): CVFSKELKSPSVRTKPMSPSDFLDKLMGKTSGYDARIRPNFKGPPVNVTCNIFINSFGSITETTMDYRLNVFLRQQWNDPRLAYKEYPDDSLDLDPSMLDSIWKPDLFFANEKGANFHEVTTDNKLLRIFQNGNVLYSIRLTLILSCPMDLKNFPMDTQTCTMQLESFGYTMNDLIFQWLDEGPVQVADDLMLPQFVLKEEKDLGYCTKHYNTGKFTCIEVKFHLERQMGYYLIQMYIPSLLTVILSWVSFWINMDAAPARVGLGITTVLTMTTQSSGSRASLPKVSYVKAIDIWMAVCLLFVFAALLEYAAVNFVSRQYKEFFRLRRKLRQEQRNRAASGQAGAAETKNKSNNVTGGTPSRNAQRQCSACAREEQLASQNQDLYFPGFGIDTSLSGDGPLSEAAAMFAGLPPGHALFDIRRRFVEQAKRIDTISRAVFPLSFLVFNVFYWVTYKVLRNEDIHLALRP
Source text: two-electrode voltage clamp, Xenopus oocytes on zGlyRα4b homomer

[10] = system: T10, zGlyRα1/ßb; assay type: cell-based, Danio rerio; conditions: -50 mV, pH 7.5, heteromers alpha:beta cRNA 1:1
T10 construct: gene glra1; full-length cDNAs in pCS2+, cRNAs co-injected 1:1 in Xenopus laevis oocytes; heteropentamer
Source text: two-electrode voltage clamp, Xenopus oocytes on zGlyRα1/ßb

[11] = target: T11, zGlyRα4b/ßa (Danio rerio, UniProt A0A8M1P2L1+A0ACM8PZL4); assay type: cell-based
T11 construct: gene glra4b; full-length cDNAs in pCS2+, cRNAs co-injected 1:1 in Xenopus laevis oocytes; heteropentamer
Source text: two-electrode voltage clamp, Xenopus oocytes on zGlyRα4b/ßa

[12] = target: T12, zGlyRα4b/ßb (Danio rerio, UniProt A0A8M1P2L1+Q6DC22); assay type: cell-based
T12 construct: gene glra4b; full-length cDNAs in pCS2+, cRNAs co-injected 1:1 in Xenopus laevis oocytes; heteropentamer
T12 sequence (A0A8M1P2L1 25-492): T9 sequence (A0A8M1P2L1 25-492)
T12 sequence (Q6DC22 23-494): T6 sequence (Q6DC22 23-494)
Source text: two-electrode voltage clamp, Xenopus oocytes on zGlyRα4b/ßb

[13] = target: T13, zGlyRα3/ßb (Danio rerio, UniProt A0A8M1PA31+Q6DC22); assay type: cell-based
T13 construct: gene glra3; full-length cDNAs in pCS2+, cRNAs co-injected 1:1 in Xenopus laevis oocytes; heteropentamer
T13 sequence (A0A8M1PA31 28-450): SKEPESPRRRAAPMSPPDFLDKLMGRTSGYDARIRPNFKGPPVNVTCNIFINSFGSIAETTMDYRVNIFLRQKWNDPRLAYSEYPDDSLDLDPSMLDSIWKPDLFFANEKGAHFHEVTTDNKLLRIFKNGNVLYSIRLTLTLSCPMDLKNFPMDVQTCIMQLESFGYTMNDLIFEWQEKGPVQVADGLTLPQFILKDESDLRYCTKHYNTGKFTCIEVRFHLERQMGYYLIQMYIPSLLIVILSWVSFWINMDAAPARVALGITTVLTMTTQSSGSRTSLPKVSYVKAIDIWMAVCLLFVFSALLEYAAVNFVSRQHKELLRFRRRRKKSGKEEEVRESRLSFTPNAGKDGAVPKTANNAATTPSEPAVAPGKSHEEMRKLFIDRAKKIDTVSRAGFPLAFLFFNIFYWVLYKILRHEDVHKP
T13 sequence (Q6DC22 23-494): T6 sequence (Q6DC22 23-494)
Source text: two-electrode voltage clamp, Xenopus oocytes on zGlyRα3/ßb

[14] = target: T14, zGlyRα3 homomer (Danio rerio, UniProt A0A8M1PA31); assay type: cell-based
T14 construct: gene glra3; full-length cDNA in pCS2+, Kozak added; cRNA in Xenopus laevis oocytes; homopentamer
T14 sequence (A0A8M1PA31 28-450): T13 sequence (A0A8M1PA31 28-450)
Source text: two-electrode voltage clamp, Xenopus oocytes on zGlyRα3 homomer

[15] = target: T15, zGlyRα3/ßa (Danio rerio, UniProt A0A8M1PA31+A0ACM8PZL4); assay type: cell-based
T15 construct: gene glra3; full-length cDNAs in pCS2+, cRNAs co-injected 1:1 in Xenopus laevis oocytes; heteropentamer
Source text: two-electrode voltage clamp, Xenopus oocytes on zGlyRα3/ßa

[16] = read-out: Glycine / EC50, agonist
[17] = read-out: Strychnine / IC50, competitive antagonist, block of current evoked by 200 μM glycine

T5 sequence (A0ACM8PZL4 23-498, one chain of several): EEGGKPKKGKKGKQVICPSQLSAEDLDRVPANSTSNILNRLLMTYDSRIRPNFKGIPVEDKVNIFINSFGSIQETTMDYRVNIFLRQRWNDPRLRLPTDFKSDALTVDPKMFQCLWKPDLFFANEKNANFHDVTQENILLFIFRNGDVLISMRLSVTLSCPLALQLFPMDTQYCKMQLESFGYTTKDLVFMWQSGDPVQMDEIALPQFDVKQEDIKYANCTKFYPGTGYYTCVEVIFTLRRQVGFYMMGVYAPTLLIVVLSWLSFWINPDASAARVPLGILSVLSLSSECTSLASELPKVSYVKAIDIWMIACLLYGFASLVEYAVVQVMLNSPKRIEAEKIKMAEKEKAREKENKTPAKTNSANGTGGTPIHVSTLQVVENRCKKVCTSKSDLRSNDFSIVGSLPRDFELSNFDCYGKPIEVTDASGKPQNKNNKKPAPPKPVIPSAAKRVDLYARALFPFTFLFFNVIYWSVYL
T15 sequence (A0ACM8PZL4 23-498, one chain of several): as above
T11 sequence (A0ACM8PZL4 23-498, one chain of several): as above
T1 sequence (A0ACM8PZL4 23-498, one chain of several): as above

NCC(=O)O [glycine]
EC50 [1]: 307 ± 30 µM
EC50 [2]: 138 ± 10 µM
EC50 [3]: 102 ± 5.8 µM
EC50 [4, 16]: 186 ± 10 µM
EC50 [5]: 458 ± 82 µM
EC50 [6]: 343 ± 64 µM
EC50 [7]: 200 ± 16 µM
EC50 [8]: 404 ± 24 µM
EC50 [9]: 134 ± 15 µM
EC50 [10, 16]: 194 ± 18 µM
EC50 [11]: 236 ± 17 µM
EC50 [12]: 221 ± 15 µM
EC50 [13]: 260 ± 20 µM
EC50 [14]: 125 ± 7.9 µM
EC50 [15]: 521 ± 52 µM

O=C1C[C@@H]2OCC=C3CN4CC[C@]56c7ccccc7N1[C@H]5[C@H]2[C@H]3C[C@H]46 [strychnine]
IC50 [1]: 0.292 ± 0.043 µM
IC50 [2]: 0.212 ± 0.037 µM
IC50 [4, 17]: 0.012 ± 0.004 µM
IC50 [5]: 0.043 ± 0.022 µM
IC50 [6]: 0.121 ± 0.016 µM
IC50 [7]: 0.055 ± 0.012 µM
IC50 [8]: 0.018 ± 0.0026 µM
IC50 [9]: 0.052 ± 0.011 µM
IC50 [10, 17]: 0.074 ± 0.017 µM
IC50 [11]: 0.081 ± 0.016 µM
IC50 [12]: 0.021 ± 0.0031 µM
IC50 [13]: 0.041 ± 0.0081 µM
IC50 [14]: 0.021 ± 0.008 µM
IC50 [15]: 0.083 ± 0.016 µM
